In experiment [1] the test system is isolated rings of thoracic aorta. Description: Evaluation of release of NO: vasorelaxing activity on endothelium-denuded aortic rings contracted with KCl. Particulars: for IC50 / Emax: Rattus norvegicus; for IC50 / NO release properties pIC50 (vasorelaxing potency): concentration reducing contractile tone induced by 20 mM KCl by half; for IC50: read-out: NO release properties pIC50 (vasorelaxing potency) (converted); for Emax / NO release properties Emax (maximum vasorelaxing effect): relative to contractile tone induced by 20 mM KCl, 1 nM-10 μM; for Emax: read-out: NO release properties Emax (maximum vasorelaxing effect). Further details: species or system rat; key to NO release properties Emax (maximum vasorelaxing effect) / NO release properties pIC50 (vasorelaxing potency): S.E: Scarcely Effective: it is not possible to detect NO release comparable to the other compounds mentioned here. As for the experimental part: The activity of the compounds was evaluated on isolated rings of thoracic aorta of normotensive male Wistar rats (250-350 g). After light anaesthesia with ether, the rats were sacrificed by cervical dislocation and exsanguination. The aortas were immediately excised, extraneous tissues were removed and the endothelial layer was removed by gently rubbing the surface with a hypodermic needle. Rings of aorta with a width of 5 mm were suspended, with a preload of 2 g, in 20-ml organ baths, containing a solution of “Tyrode” (composition of the saline solution in mM: NaCl 136.8; KCl 2.95; CaCl2 1.80; MgSO4 1.05; NaH2PO4 0.41; NaHCO3 11.9; glucose 5.5), thermostatically controlled at 37° C. and kept in an atmosphere of O2 (95%) and CO2 (5%). […] were recorded by means of an isometric transducer (FTO3 Erba), connected to a microdynamometer (Buxco Electronics).
60 minutes after preparation, removal of the endothelium was confirmed by acetylcholine (ACH) (10 μM) treatment of the vascular rings pre-contracted with KCl (20 mM). Relaxation of less than 10% of the contraction induced by KCl was considered as representative of acceptable removal of the endothelial layer, whereas organs displaying relaxation ≧10% were discarded. 40 minutes after confirmation of complete removal of the endothelium, the aortas were contracted by treatment with a single dose of KCl (20 mM) and after the contraction reached a stable plateau, increasing cumulative concentrations (with progressive increments of 3 times) of the test compounds (1 nM-10 μM) were added. It was found from preliminary experiments that the contraction induced by KCl (20 mM) remained stable in a tonic state for at least 40 minutes. The same experiments were performed in the presence of a well-known inhibitor of guanylate cyclase: ODQ 1 μM, which was incubated in aorta preparations after confirmation of removal of the endothelium.
Analysis of the results. The vasorelaxing activity was evaluated as a percentage (%) relative to the contractile tone induced by 20 mM KCl. The pharmacodynamic efficacy parameter (Emax) corresponds to the maximum vasorelaxing effect induced by the molecule tested, expressed as percentage relative to the contractile tone induced by 20 mM KCl. When the limit concentration of 10 μM (the highest concentration administered) of the test compounds has not reached the maximum effect, the efficacy parameter (Emax) corresponds to the vasorelaxing effect induced by the limit concentration (expressed as percentage relative to the contractile tone induced by 20 mM KCl). The pharmacodynamic parameter of potency of the compounds was expressed as pIC50 calculated as the negative logarithm of the molar concentration of test compound that reduces the contractile tone induced by 20 mM KCl by half. […] The parameters of efficacy and potency were expressed as mean±standard error, for 5-10 experiments. The experimental data were analysed by the program GraphPad Prism 3.0.

In another experiment the target is COX-2 (Mus musculus (Mouse), UniProt Q05769). Description: Evaluation of COX-2 activity: PGE2 production in LPS-stimulated J774 cells. Format: cell-based, murine. Particulars: J774 cells stimulated 24 hours with LPS 10 μg/mL; PGE2 by radio-immunological assay; read-out: Cyclooxygenase inhibition COX-2 IC50. As for the experimental part:
The murine monocyte/macrophage cell line J774 is grown in Dulbecco's modified Eagle's medium (DMEM), enriched with glutamine (2 mM), HEPES (25 mM), penicillin (100 u/mL), streptomycin (100 μg/mL), 10% of fetal bovine serum (FBS) and 1.2% of sodium pyruvate. […] Just before the experiments, the culture medium is replaced with fresh medium without FBS to avoid interference during the radio-immunological phase and the cells are stimulated as described below.
The supernatants are collected for evaluating, by means of radio-immunological assays, the amount of PGE2 produced.
In each group of experiments, wells were used in triplicate for the different treatment conditions. […] The data were evaluated using the sigmoidal dose-response equation (variable slope) (GraphPad software). IC50 and the 95% precision intervals were calculated with the program GraphPad Instat (GraphPad software).

By Emax is commonly meant the maximal effect, on the per cent scale that the assay sets.

Chain of COX-2 (Q05769 18-604): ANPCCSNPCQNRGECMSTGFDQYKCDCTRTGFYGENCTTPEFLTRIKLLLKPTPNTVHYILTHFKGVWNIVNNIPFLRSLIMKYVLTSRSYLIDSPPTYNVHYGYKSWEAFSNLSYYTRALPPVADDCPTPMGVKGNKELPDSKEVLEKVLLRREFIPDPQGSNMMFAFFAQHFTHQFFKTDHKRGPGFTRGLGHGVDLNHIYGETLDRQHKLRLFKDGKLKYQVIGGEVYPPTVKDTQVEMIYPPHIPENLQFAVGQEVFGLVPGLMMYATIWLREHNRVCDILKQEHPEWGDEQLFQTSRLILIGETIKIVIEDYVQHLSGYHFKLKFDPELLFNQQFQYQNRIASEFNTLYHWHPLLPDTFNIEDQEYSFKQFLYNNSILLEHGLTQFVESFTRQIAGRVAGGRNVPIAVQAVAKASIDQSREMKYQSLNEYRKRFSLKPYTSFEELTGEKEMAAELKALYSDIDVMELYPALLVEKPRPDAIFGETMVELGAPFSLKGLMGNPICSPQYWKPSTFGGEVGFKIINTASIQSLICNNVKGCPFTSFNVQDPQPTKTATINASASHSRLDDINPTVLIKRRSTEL

In the case of `Cc1c(CC(=O)OCC(CO[N+](=O)[O-])O[N+](=O)[O-])cc(-c2ccc(S(C)(=O)=O)cc2)n1-c1ccccc1` (racemic) [Example 15, (R,S)-2,3-bis(Nitrooxy)propyl-2-[1-phenyl-2-methyl-5-(4-methylsulphonylphenyl)-1H-pyrrol-3-yl]acetate], in experiment [1], the IC50 is 1120 nM and the Emax came out at 57 ± 6%.
`Cc1c(CC(=O)NC(CCO)C(=O)O)cc(-c2ccc(S(C)(=O)=O)cc2)n1-c1ccc(F)cc1` (racemic) [Example 32-II, (R,S)-4-(Hydroxy)-2-[[1-(4-fluorophenyl)-2-methyl-5-(4-methylsulphonylphenyl)-1H-pyrrol-3-yl]acetamido]butanoic Acid]: the IC50 at COX-2 stood at 86 nM.
For the molecule `Cc1c(CC(=O)NC(CCO[N+](=O)[O-])C(=O)O)cc(-c2ccc(S(C)(=O)=O)cc2)n1-c1cccc(F)c1` (racemic) [Example 33, (R,S)-4-(Nitroxy)-2-[[1-(3-fluorophenyl)-2-methyl-5-(4-methylsulphonylphenyl)-1H-pyrrol-3-yl]acetamido]butanoic Acid], in experiment [1], the Emax was determined as 23 ± 2%.
In the case of `Cc1c(CC(=O)NC(CO[N+](=O)[O-])C(=O)O)cc(-c2ccc(S(C)(=O)=O)cc2)n1-c1ccc(F)cc1` (stereo in doubt) [Example 29, (S)-3-(Nitroxy)-2-[[1-(4-fluorophenyl)-2-methyl-5-(4-methylsulphonylphenyl)-1H-pyrrol-3-yl]acetamido]propanoic Acid], in experiment [1], the “NO release properties pIC50 (vasorelaxing potency)” value was “S.E” and the “NO release properties Emax (maximum vasorelaxing effect)” value is “S.E”. Also, the IC50 at COX-2 came out at 310 nM.
With `Cc1c(CC(=O)NC(CO)C(=O)O)cc(-c2ccc(S(C)(=O)=O)cc2)n1-c1ccc(F)cc1` (stereo in doubt) [Example 29-II, (S)-3-(Hydroxy)-2-[[1-(4-fluorophenyl)-2-methyl-5-(4-methylsulphonylphenyl)-1H-pyrrol-3-yl]acetamido]propanoic Acid], on COX-2, the IC50 is 160 nM.
Regarding `Cc1c(CC(=O)NC(CO[N+](=O)[O-])C(=O)O)cc(-c2ccc(S(C)(=O)=O)cc2)n1-c1cccc(F)c1` (stereo in doubt) [Example 30, (S)-3-(Nitroxy)-2-[1-(3-fluorophenyl)-2-methyl-5-(4-methylsulphonylphenyl)-1H-pyrrol-3-yl]acetamido]propanoic Acid], in experiment [1], the “NO release properties pIC50 (vasorelaxing potency)” value is reported as “S.E” and the “NO release properties Emax (maximum vasorelaxing effect)” value was “S.E”. Besides, the IC50 on COX-2 is 140 nM.
As to `Cc1c(CC(=O)NC(CO)C(=O)O)cc(-c2ccc(S(C)(=O)=O)cc2)n1-c1cccc(F)c1` (stereo in doubt) [Example 30-II, (S)-3-(Hydroxy)-2-[1-(3-fluorophenyl)-2-methyl-5-(4-methylsulphonylphenyl)-1H-pyrrol-3-yl]acetamido]propanoic Acid], the IC50 on COX-2 is 57 nM.
As for `Cc1c(CC(=O)OCCO[N+](=O)[O-])cc(-c2ccc(S(C)(=O)=O)cc2)n1-c1ccccc1` [Example 1, 2-(Nitrooxy)ethyl-2-[1-phenyl-2-methyl-5-(4-methylsulphonylphenyl)-1H-pyrrol-3-yl]acetate], the values for the IC50 (in experiment [1]; at COX-2) were 1410 nM and 43 nM, respectively. Also, in experiment [1], the Emax is 66 ± 3%.
`Cc1c(CC(=O)OCCO)cc(-c2ccc(S(C)(=O)=O)cc2)n1-c1ccccc1` [Example 1-II]: at COX-2, the IC50 is 27 nM.
For the molecule `CSc1ccc(-n2c(-c3ccc(S(C)(=O)=O)cc3)cc(CC(=O)OCCO[N+](=O)[O-])c2C)cc1` [Example 5, 2-(Nitroxy)ethyl-[1-(4-methylthiophenyl)-2-methyl-5-(4-methylsulphonylphenyl)-1H-pyrrol-3-yl]-acetate], in experiment [1], the IC50 was 457 nM and the Emax was found to be 64.9 ± 1.4%.
For `CSc1ccc(-n2c(-c3ccc(S(C)(=O)=O)cc3)cc(CC(=O)OCCO)c2C)cc1` [Example 5-II, 2-Hydroxyethyl-[1-(4-methylthiophenyl)-2-methyl-5-(4-methylsulphonylphenyl)-1H-pyrrol-3-yl]-acetate], the IC50 at COX-2 was 85 nM.
As to `Cc1c(CC(=O)OCCCO)cc(-c2ccc(S(C)(=O)=O)cc2)n1-c1cccc(F)c1` [Example 8-II, 3-Hydroxypropyl-[1-(3-fluorophenyl)-2-methyl-5-(4-methylsulphonylphenyl)-1H-pyrrol-3-yl]-acetate], the IC50 at COX-2 was 23 nM.
Take `COc1ccc(-n2c(-c3ccc(S(C)(=O)=O)cc3)cc(CC(=O)OCCCO)c2C)cc1` [Example 9-II, 3-Hydroxypropyl-[1-(4-methoxyphenyl)-2-methyl-5-(4-methylsulphonylphenyl)-1H-pyrrol-3-yl]-acetate]: the IC50 on COX-2 stood at 700 nM.
Turning to `CSc1ccc(-n2c(-c3ccc(S(C)(=O)=O)cc3)cc(CC(=O)OCCCO[N+](=O)[O-])c2C)cc1` [Example 10, 3-(Nitroxy)propyl-[1-(4-methylthiophenyl)-2-methyl-5-(4-methylsulphonylphenyl)-1H-pyrrol-3-yl]-acetate], in experiment [1], the Emax came to 41 ± 8%. The IC50 on COX-2 was determined as 27 nM.
Turning to `CSc1ccc(-n2c(-c3ccc(S(C)(=O)=O)cc3)cc(CC(=O)OCCCO)c2C)cc1` [Example 10-II, 3-(Hydroxy)propyl-[1-(4-methylthiophenyl)-2-methyl-5-(4-methylsulphonylphenyl)-1H-pyrrol-3-yl]-acetate], the IC50 at COX-2 was 260 nM.
On to `Cc1c(CC(=O)OCCCCO)cc(-c2ccc(S(C)(=O)=O)cc2)n1-c1cccc(F)c1` [Example 12-II, 4-(hydroxy)butyl-[1-(3-fluorophenyl)-2-methyl-5-(4-methylsulphonylphenyl)-1H-pyrrol-3-yl]-acetate], for which the IC50 on COX-2 was determined as 110 nM.
Take `CSc1ccc(-n2c(-c3ccc(S(C)(=O)=O)cc3)cc(CC(=O)OCCCCO[N+](=O)[O-])c2C)cc1` [Example 14, 4-(Nitrooxy)butyl-2-[1-(4-thiomethylphenyl)-2-methyl-5-(4-methylsulphonylphenyl)-1H-pyrrol-3-yl]acetate]: the “vasorelaxing effect in the presence of ODQ” value in experiment [1] (ODQ 1 μM, guanylate cyclase inhibitor) is “not fully antagonized by ODQ”. For the same molecule, in experiment [1], the IC50 was 5010 nM and the Emax is 55 ± 15%. Further, the IC50 on COX-2 amounted to 220 nM.
`CSc1ccc(-n2c(-c3ccc(S(C)(=O)=O)cc3)cc(CC(=O)OCCCCO)c2C)cc1` [Example 14-II, 4-(Hydroxy)butyl-2-[1-(4-thiomethylphenyl)-2-methyl-5-(4-methylsulphonylphenyl)-1H-pyrrol-3-yl]acetate]: the IC50 on COX-2 amounted to 55 nM.
Consider `Cc1c(CC(=O)NCCO)cc(-c2ccc(S(C)(=O)=O)cc2)n1-c1cccc(F)c1` [Example 24-II, N-[(2-hydroxy)ethyl]-2-[1-(3-fluorophenyl)-2-methyl-5-(4-methylsulphonylphenyl)-1H-pyrrol-3-yl]acetamide], for which the IC50 on COX-2 came out at 290 nM.
`Cc1c(CCOCCO[N+](=O)[O-])cc(-c2ccc(S(C)(=O)=O)cc2)n1-c1ccccc1` [Example 36, 2-[2-[1-Phenyl-2-methyl-5-(4-methylsulphonylphenyl)-1H-pyrrol-3-yl]ethoxy]ethyl Nitrate]: in experiment [1], the IC50 is 6030 nM and the Emax turned out to be 65%. Moreover, on COX-2, the IC50 turned out to be 17 nM.
`Cc1c(CCOCCCO)cc(-c2ccc(S(C)(=O)=O)cc2)n1-c1cccc(F)c1` [Example 42-II, 3-[2-(1-(3-Fluorophenyl)-2-methyl-5-(4-methylsulphonylphenyl)-1H-pyrrol-3-yl)ethoxy]propanol]: at COX-2, the IC50 came out at 1500 nM.

The values above are taken from patent US9162979B2, “1,5-Diary1-2-alkylpyrrole-3-substituted nitro esters, selective COX-2 inhibitors and nitric oxide donors” (ROTTAPHARM BIOTECH S.R.L., priority 2010, dated 2015).
